Assay results from US8138191B2, “Inhibitor compounds and cancer treatment methods” (Critical Outcome Technologies Inc., priority 2007, dated 2012).
Read-outs that look alike come from different tables or passages of the source.

Columns and labels:
HCT-116 = assay: CellTiter-Blue growth inhibition, single agents and combinations, HCT-116; format: cell-based; settings: Homo sapiens, read-out: Mean IC50, single agent
Procedure: (§1) The stock concentration was further diluted to 1 mM and added to a drug plate. […] Following dilution, 2 μl of test agent was transferred to the corresponding wells of a cell-containing 96-well plate with 198 μl of growth media. Tarceva® (erlotinib) was supplied by LC Labs (Woburn, Mass.).
(§2) Cells were grown to 70% confluency, trypsinized, counted, and seeded in 96-well flat-bottom plates at a final concentration of 2.5×10^3−5×10^3 cells/well (Day 0). […] Viable cell numbers were quantified by the CellTiter-Blue® cell viability assay, which measures the conversion of the indicator dye (resazurin) to resorufin, an indicator of cell viability. Experiments were repeated at least twice with the same concentrations to determine growth inhibitory activity.
(§3) The CI, a numerical value calculated as described in equation A, also provides a quantitative measure of the extent of drug interaction. A CI of less than, equal to, and more than 1 indicates synergy, additivity, and antagonism, respectively. CI=(CAx/ICx,A)+(CB,x/ICx,B) Equation A: Where CA,x and CB,x, are the concentrations of drug A and drug B used in combination to achieve x % drug effect. ICx,A and ICx,B are the concentrations for single agents to achieve the same effect.

[1] = system: DMS114 and SHP-77 human small cell lung cancer lines; assay: Actual outcome of in vitro testing in both reference human SCLC lines; format: cell-based
Procedure: (§4) Briefly, cells were plated in plastic tissue culture plates and grown under standard conditions for each cell line, in carbon dioxide/oxygen atmosphere in plastic tissue culture plates, in the presence of COTI-2 or COTI-219 compounds at 35° C. for 3 days. Control cultures were treated with vehicle minus compound. Cells were counted after 3 days in culture and at a cell density of no more than 80%. The following cell lines, obtained from the National Cancer Institute, were tested: human SCLC cell lines DMS153, DMS114, SHP77; human NSCLC cell lines H226, A460, A560; human breast cancer cell lines T47D, MCF7; human colon cancer cell line HT29; and, human Leukemia cell lines K562, HL60.

[2] = Half-life and liver clearance rate by human liver microsomes (HLM) at 0.5 mg/mL; format: in vitro ADME; settings: liver microsomes
Procedure: Sampling was conducted at 1, 20, 40, 60, 120,180 and 240 minutes and the remaining concentration of each compound was evaluated. A half life (T1/2) was calculated at each concentration, along with the rate of clearance by the liver (CL). The CL values compare favorably with published values for other marketed therapeutic agents under identical conditions. The half life of compounds according to the invention is therefore likely to be long enough to permit convenient dosing, while not being so long as to lead to accumulation in patients with potential long term toxicity effects.
The incubation mixture (500 μl) consisted of 100 μl of COTI-2, 150 μl of liver microsomal fractions (1.67 mg/ml rat/human) 35.5 μl of 100 mM phosphate buffer and 214.5 μl co-factor (NADPH, UDPGA, and MgCl2). The COTI-2 compound mixture and co-factor were pre-warmed at 37° C. for 5 min, with shaking at 150 rpm. The reaction was started by adding co-factor to the test compound mixture. The final concentration of the incubation mixture was as follows:
Blank incubation was performed with the co-factors. The sampling time points included 0 and 240 min for the blank sample, and 0, 20, 40, 60, 120, 180, and 240 min for COTI-2. At each time point 50 μl of sample was added to 150 μl of methanol to stop the reaction. The sample plates were centrifuged at 4200 rpm for 15 min and the supernatant was injected into LC-MS/MS for analysis. The percent compound remaining, rate of elimination (Kel), half-life (T1/2), and intrinsic clearance (CL) using standard calculations.

U87 = assay: IC50 human glioma/astrocytoma cell lines (alamar Blue), U87; settings: Homo sapiens, U-87 MG
Procedure: (§8) Cell lines were obtained from the Human Tissue Culture Collection (ATCC), grown and maintained under ATCC-specified conditions, and tested to ensure viability and lack of contaminating mycoplasma and common viruses. […] A viability stain (alamar Blue) was added to cells after 4-7 days of drug exposure (approximately 4 doublings of control cells; maximum cell density in wells approximately 80%), and assayed for total cellular metabolic activity (a function of population density of live cells) by absorbance.

DMS114 = assay: in vitro IC50 against cancer cell lines, DMS114; format: cell-based; settings: Homo sapiens, DMS-114, 72 h; DMS114, SCLC, 3 days
Procedure: as §4

SW620 = assay: Tumor cell proliferation, single agents and combinations, SW620; format: cell-based, human; settings: Homo sapiens
Procedure: (§5) The 3 cell lines were treated as follows:
(§6) Day 1: Cells were plated in 96-well flat bottom plates (VWR, Mississauga, ON, Canada) and allowed to adhere overnight.
(§7) All treated and control cells were, therefore, exposed to a 1% DMSO concentration plus the desired concentration of COTI-2.
as §3

SNB-19 = assay: IC50 human glioma/astrocytoma cell lines (alamar Blue), SNB-19; settings: Homo sapiens, SNB-19
Procedure: as §8

MCF7 = assay: in vitro IC50 against cancer cell lines, MCF7; format: cell-based; settings: Homo sapiens, 72 h; MCF7, Breast Cancer, 3 days
Procedure: as §4

H292 = assay: CellTiter-Blue growth inhibition, single agents and combinations, H292; format: cell-based; settings: Homo sapiens, read-out: Mean IC50, single agent
Procedure: as §1
Viable cell numbers were quantified by the CellTiter-Blue® cell viability assay, which measures the conversion of the indicator dye (resazurin) to resorufin, an indicator of cell viability. Experiments were repeated at least twice with the same concentrations to determine growth inhibitory activity.
as §3

T47D = assay: in vitro IC50 against cancer cell lines, T47D; format: cell-based; settings: Homo sapiens, 72 h, Breast Cancer, 3 days
Procedure: as §4

HT29 = assay: in vitro IC50 against cancer cell lines, HT29; format: cell-based; settings: Homo sapiens, HT-29, 72 h; HT29, Colorectal Cancer, 3 days
Procedure: as §4

HCT-15 = assay: Tumor cell proliferation, single agents and combinations, HCT-15; format: cell-based; settings: Homo sapiens
Procedure: as §5, §6, §7, §3

SF-268 = assay: IC50 human glioma/astrocytoma cell lines (alamar Blue), SF-268
Procedure: as §8

K562 = assay: in vitro IC50 against cancer cell lines, K562; format: cell-based; settings: Homo sapiens, 72 h; K562, Leukemia, 3 days
Procedure: as §4

HT-29 = assay: CellTiter-Blue growth inhibition, single agents and combinations, HT-29; format: cell-based; settings: Homo sapiens, read-out: Mean IC50, single agent
Procedure: as §1, §2, §3

[3] = 10 μmol, read-out: In vitro T½ (converted)
[4] = 100 μmol, read-out: In vitro T½ (converted)
[5] = average over 1, 10 and 100 μM, read-out: average half life (converted)
[6] = value before brackets, from 3 in vitro experiments, read-out: In vitro T½

SMILES	Actual outcome of in vitro testing [1]	microsomal CLint at 1 µM ([2]; 1 μM)	half-life at 1 µM ([2]; 1 μM, read-out: T1/2)	half-life at 1 µM ([2]; 1 μmol, read-out: In vitro T½)	microsomal CLint at 10 µM ([2]; 10 μM)	half-life at 10 µM ([2]; 10 μM, read-out: T1/2)	half-life at 10 µM [2, 3]	microsomal CLint at 100 µM ([2]; 100 μM)	half-life at 100 µM ([2]; 100 μM, read-out: T1/2)	half-life at 100 µM [2, 4]	half-life [2, 5]	half-life [2, 6]	IC50 (U87)	IC50 (DMS114)	IC50 (SNB-19)	IC50 (MCF7)	IC50 (T47D)	IC50 (HT29)	IC50 (SF-268)	IC50 (K562)	also measured
S=C(N/N=C1/CCCc2cccnc21)N1CCN(c2ccccn2)CC1 [COTI-2]	Active	12 µL/min/mg	1.7 h	1.7 h	4 µL/min/mg	4.76 h	4.8 h	2 µL/min/mg	11.4 h	11.4 h	6 h	~6 h	48 nM	51 nM	8 nM	101 nM	221 nM	121 nM	66 nM	176 nM	IC50 (HCT-116; HCT-116, 72 h): 3.6 nM; IC50 (SW620; SW-620, read-out: Mean IC50, single agent): 165 nM; IC50 (H292; NCI-H292, 72 h): 3.9 nM; IC50 (HCT-15; HCT-15, read-out: Mean IC50, single agent): 8.3 nM; IC50 (HT-29; HT-29, 72 h): 200 nM
CN1CCN(C(=S)NN=C2c3ncccc3-c3cccnc32)CC1 [COTI-219]	Active	4.2 µL/min/mg	5.02 h	5 h	3 µL/min/mg	7.01 h	7 h	2.5 µL/min/mg	8.47 h	8.5 h	6.8 h	~6.8 h	2370 nM	267 nM	1990 nM	421 nM	367 nM	403 nM	1170 nM	222 nM	IC50 (HCT-116; HCT-116, Colon, KRAS - MUT, 72 h): 8.7 nM; IC50 (SW620; SW-620, SW620, Colon, KRAS - MUT, read-out: Mean IC50, single agent): 7.4 nM; IC50 (H292; NCI-H292, H292, NSCLC, EGFR - WT, 72 h): 20 nM; IC50 (HCT-15; HCT-15, Colon, KRAS - MUT, read-out: Mean IC50, single agent): 5.1 nM; IC50 (HT-29; HT-29, Colon, KRAS - WT, 72 h): 7.4 nM
